Measured values published in PubChem BioAssay AID248 (DTP/NCI, 2004).
“And” between values parts separate entries of the source, which are not always exact repeats. Identical values can stand only once. Inconclusive results and toxic doses are left out. Cut-off read from the data, not from the text of the source: active = T/C of 150% or more; inactive = T/C below 125%.

Tested on: L1210 leukemia ip in BDF1 mice, survival T/C
Assay: NCI In Vivo Anticancer Drug Screen. Data for tumor model L1210 Leukemia (intraperitoneal) in B6D2F1 (BDF1) mice
Conditions: endpoint: mean survival time, higher = longer survival
Outline: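 Survival endpoint. Drug-treated group vs vehicle group, expressed as T divided by C. Tumor passaged by transplantation.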

[1] = dose: 100.0 mg/kg/injection, schedule: Q01DX009 (ip), vehicle: saline
[2] = dose: 200.0 mg/kg/injection, schedule: Q01DX009 (ip), vehicle: saline
[3] = dose: 100.0 mg/kg/injection, schedule: Q01DX001 (ip), vehicle: Klucel (hydroxypropylcellulose) (HPC)
[4] = dose: 100.0 mg/kg/injection, schedule: Q04DX003 (ip), vehicle: Klucel (hydroxypropylcellulose) (HPC)
[5] = dose: 200.0 mg/kg/injection, schedule: Q01DX001 (ip), vehicle: Klucel (hydroxypropylcellulose) (HPC)
[6] = dose: 200.0 mg/kg/injection, schedule: Q04DX003 (ip), vehicle: Klucel (hydroxypropylcellulose) (HPC)
[7] = dose: 400.0 mg/kg/injection, schedule: Q01DX001 (ip), vehicle: Klucel (hydroxypropylcellulose) (HPC)
[8] = dose: 400.0 mg/kg/injection, schedule: Q04DX003 (ip), vehicle: Klucel (hydroxypropylcellulose) (HPC)
[9] = dose: 100.0 mg/kg/injection, schedule: Q04DX002 (ip), vehicle: saline
[10] = dose: 200.0 mg/kg/injection, schedule: Q04DX002 (ip), vehicle: saline
[11] = dose: 400.0 mg/kg/injection, schedule: Q04DX002 (ip), vehicle: saline
[12] = dose: 100.0 mg/kg/injection, schedule: Q01DX001 (ip), vehicle: carboxymethylcellulose (CMC)
[13] = dose: 400.0 mg/kg/injection, schedule: Q01DX001 (ip), vehicle: carboxymethylcellulose (CMC)
[14] = dose: 50.0 mg/kg/injection, schedule: Q01DX001 (ip), vehicle: saline
[15] = dose: 100.0 mg/kg/injection, schedule: Q01DX001 (ip), vehicle: saline
[16] = dose: 100.0 mg/kg/injection, schedule: Q01DX009 (ip), vehicle: Klucel (hydroxypropylcellulose) (HPC)
[17] = dose: 200.0 mg/kg/injection, schedule: Q01DX009 (ip), vehicle: Klucel (hydroxypropylcellulose) (HPC)
[18] = dose: 400.0 mg/kg/injection, schedule: Q01DX009 (ip), vehicle: Klucel (hydroxypropylcellulose) (HPC)
[19] = dose: 200.0 mg/kg/injection, schedule: Q01DX001 (ip), vehicle: saline
[20] = dose: 400.0 mg/kg/injection, schedule: Q01DX001 (ip), vehicle: saline
[21] = dose: 100.0 mg/kg/injection, schedule: Q04DX003 (ip), vehicle: saline with Tween-80
[22] = dose: 200.0 mg/kg/injection, schedule: Q04DX003 (ip), vehicle: saline with Tween-80

Measured: T/C

NS(=O)(=O)c1ccccc1C(=O)O
inactive: [1] 96 % of control | [2] 91 % of control

Cc1ccc(N)cc1CO
inactive: [3] 94 % of control | [4] 94 % of control | [5] 92 % of control | [6] 103 % of control | [7] 100 % of control | [8] 94 % of control

CC1CCOC(C)(CCl)O1 (stereo unspecified)
inactive: dose: 100.0 mg/kg/injection, schedule: Q04DX002 (ip), vehicle: saline with Tween-80 98 % of control | dose: 200.0 mg/kg/injection, schedule: Q04DX002 (ip), vehicle: saline with Tween-80 95 % of control | dose: 400.0 mg/kg/injection, schedule: Q04DX002 (ip), vehicle: saline with Tween-80 98 % of control

Nc1ccncn1
inactive: dose: 100.0 mg/kg/injection, schedule: Q01DX005 (ip), vehicle: saline 94 % of control | [1] 99 % of control | [9] 96 % of control | dose: 200.0 mg/kg/injection, schedule: Q01DX005 (ip), vehicle: saline 97 % of control | [2] 96 % of control | [10] 96 % of control | dose: 400.0 mg/kg/injection, schedule: Q01DX005 (ip), vehicle: saline 105 % of control | dose: 400.0 mg/kg/injection, schedule: Q01DX009 (ip), vehicle: saline 96 % of control | [11] 100 % of control

CCCCCCCCCCCCCCN(C)C
inactive: dose: 25.0 mg/kg/injection, schedule: Q04DX003 (ip), vehicle: Klucel (hydroxypropylcellulose) (HPC) 107 % of control | dose: 50.0 mg/kg/injection, schedule: Q04DX003 (ip), vehicle: Klucel (hydroxypropylcellulose) (HPC) 108 % of control | [4] 94 % of control and 96 % of control

O=C(O)CN(CCN(CC(=O)O)CC(=O)O)CCN(CC(=O)O)CC(=O)O
inactive: [12] 93 % of control | [13] 96 % of control

COC(=O)C1(CN(C)C)CCCC(CN(C)C)(C(=O)OC)C1=O (stereo unspecified)
inactive: dose: 50.0 mg/kg/injection, schedule: Q01DX Z (ip), vehicle: carboxymethylcellulose (CMC) 100 % of control and 106 % of control | dose: 75.0 mg/kg/injection, schedule: Q01DX Z (ip), vehicle: carboxymethylcellulose (CMC) 106 % of control and 109 % of control | dose: 115.0 mg/kg/injection, schedule: Q01DX Z (ip), vehicle: carboxymethylcellulose (CMC) 113 % of control | dose: 160.0 mg/kg/injection, schedule: Q01DX Z (ip), vehicle: carboxymethylcellulose (CMC) 106 % of control and 113 % of control

COc1ncnc2c1ccn2C1OC(CO)C(O)C1O (stereo unspecified)
inactive: dose: 25.0 mg/kg/injection, schedule: Q01DX001 (ip), vehicle: saline 86 % of control | [14] 101 % of control | [15] 101 % of control

CCN(c1ccccc1)c1ccc(C=O)cc1
inactive: [16] 98 % of control | [4] 97 % of control | [17] 94 % of control | [6] 102 % of control | [18] 93 % of control | [8] 105 % of control

N#Cc1nc[nH]c1C(N)=O
inactive: [15] 94 % of control | [19] 94 % of control | [20] 96 % of control

O=c1oc(-c2ccccc2)nc2c(Cl)ccc(Cl)c12
inactive: dose: 25.0 mg/kg/injection, schedule: Q01DX009 (ip), vehicle: Klucel (hydroxypropylcellulose) (HPC) 110 % of control | dose: 50.0 mg/kg/injection, schedule: Q01DX009 (ip), vehicle: Klucel (hydroxypropylcellulose) (HPC) 105 % of control | dose: 75.0 mg/kg/injection, schedule: Q01DX009 (ip), vehicle: Klucel (hydroxypropylcellulose) (HPC) 102 % of control

O=S(=O)(O)c1ccc(N=Nc2c(O)cc(O)cc2O)cc1
inactive: dose: 100.0 mg/kg/injection, schedule: Q04DX003 (ip), vehicle: saline 94 % of control | dose: 200.0 mg/kg/injection, schedule: Q04DX003 (ip), vehicle: saline 97 % of control | dose: 400.0 mg/kg/injection, schedule: Q04DX003 (ip), vehicle: saline 93 % of control

CCOC1=C(NC(C)=O)C(=O)c2ccccc2C1=O
inactive: dose: 75.0 mg/kg/injection, schedule: Q01DX001 (ip), vehicle: other 100 % of control

CCC(Cc1c[nH]c2ccccc12)[N+](=O)[O-] (stereo unspecified)
inactive: [16] 104 % of control | [17] 111 % of control | [18] 113 % of control

N#CCCCCn1ccc(=O)[nH]c1=O
inactive: dose: 45.0 mg/kg/injection, schedule: Q01DX009 (ip), vehicle: Klucel (hydroxypropylcellulose) (HPC) 92 % of control | dose: 90.0 mg/kg/injection, schedule: Q01DX009 (ip), vehicle: Klucel (hydroxypropylcellulose) (HPC) 104 % of control | [4] 100 % of control | dose: 180.0 mg/kg/injection, schedule: Q01DX009 (ip), vehicle: Klucel (hydroxypropylcellulose) (HPC) 98 % of control | [6] 102 % of control | dose: 360.0 mg/kg/injection, schedule: Q01DX009 (ip), vehicle: Klucel (hydroxypropylcellulose) (HPC) 93 % of control | [8] 96 % of control

O=C(Nc1ccc(CCO)cc1)c1cccc(F)c1
inactive: [16] 96 % of control | [17] 107 % of control | [18] 91 % of control

O=C1c2ccccc2C(=O)C2OC12 (stereo unspecified)
inactive: dose: 3.0 mg/kg/injection, schedule: Q01DX009 (ip), vehicle: Klucel (hydroxypropylcellulose) (HPC) 97 % of control | dose: 6.0 mg/kg/injection, schedule: Q01DX009 (ip), vehicle: Klucel (hydroxypropylcellulose) (HPC) 93 % of control | dose: 12.0 mg/kg/injection, schedule: Q01DX009 (ip), vehicle: Klucel (hydroxypropylcellulose) (HPC) 97 % of control | dose: 12.5 mg/kg/injection, schedule: Q04DX002 (ip), vehicle: Klucel (hydroxypropylcellulose) (HPC) 102 % of control | dose: 25.0 mg/kg/injection, schedule: Q04DX002 (ip), vehicle: Klucel (hydroxypropylcellulose) (HPC) 94 % of control | dose: 50.0 mg/kg/injection, schedule: Q01DX001 (ip), vehicle: carboxymethylcellulose (CMC) 98 % of control | dose: 50.0 mg/kg/injection, schedule: Q04DX002 (ip), vehicle: Klucel (hydroxypropylcellulose) (HPC) 97 % of control | [12] 109 % of control | dose: 200.0 mg/kg/injection, schedule: Q01DX001 (ip), vehicle: carboxymethylcellulose (CMC) 98 % of control | [13] 104 % of control

C=CCCCCCCCCC(=O)NC(C)C(C)(C)C (stereo unspecified)
inactive: [21] 87 % of control | [22] 98 % of control

COc1cccc(C2Nc3cc(Cl)ccc3S2)c1O (stereo unspecified)
inactive: dose: 75.0 mg/kg/injection, schedule: Q01DX001 (ip), vehicle: saline 105 % of control | dose: 150.0 mg/kg/injection, schedule: Q01DX001 (ip), vehicle: saline 109 % of control | dose: 300.0 mg/kg/injection, schedule: Q01DX001 (ip), vehicle: saline 105 % of control

CSCSCC(N)C(=O)O (stereo unspecified)
inactive: [15] 94 % of control | dose: 150.0 mg/kg/injection, schedule: Q04DX003 (ip), vehicle: saline 100 % of control | [19] 100 % of control | dose: 300.0 mg/kg/injection, schedule: Q04DX003 (ip), vehicle: saline 94 % of control | [20] 100 % of control | dose: 600.0 mg/kg/injection, schedule: Q04DX003 (ip), vehicle: saline 97 % of control

CN=C(N)C(C)Cl (stereo unspecified)
inactive: [9] 106 % of control | [10] 103 % of control | [11] 103 % of control

COc1cc(OC)c(C(=O)CCl)c(O)c1Cl
inactive: [21] 99 % of control | [22] 104 % of control | dose: 400.0 mg/kg/injection, schedule: Q04DX003 (ip), vehicle: saline with Tween-80 92 % of control

O=C1OCC2CC3c4ccccc4C12c1ccccc13 (stereo unspecified)
inactive: [3] 100 % of control | [4] 98 % of control | [5] 92 % of control | [6] 93 % of control | [7] 105 % of control | [8] 97 % of control

COc1cc(Br)c(CC(=O)c2c[nH]c3ccc(Br)cc23)cc1OC
inactive: [14] 100 % of control | [15] 94 % of control | [19] 105 % of control | [20] 94 % of control

c1ccc2c(c1)-c1cccc3c1c-2cc1ccccc13
inactive: dose: 100.0 mg/kg/injection, schedule: Q01DX001 (ip), vehicle: other 104 % of control | dose: 200.0 mg/kg/injection, schedule: Q01DX001 (ip), vehicle: other 101 % of control | dose: 400.0 mg/kg/injection, schedule: Q01DX001 (ip), vehicle: other 95 % of control
